Source: ChEMBL document CHEMBL1765067, “Absolute configuration of (-)-gambogic acid, an antitumor agent” (2011)

System: HT-29
Assay: Anticancer activity aganist human HT-29 cells
Type: functional
Settings: read-out: ED50 (the source's name)

Structure (SMILES)	EC50
CC(C)=CCc1c2c(c(O)c3c1O[C@]14C(=C[C@@H]5C[C@H]1C(C)(C)O[C@@]4(C/C=C(/C)C(=O)O)C5=O)C3=O)C=CC(C)(C)O2	360 nM
CC(=O)O[C@H]1C(=O)[C@@]2(C)[C@H]([C@H](OC(=O)c3ccccc3)[C@]3(O)C[C@H](OC(=O)[C@H](O)[C@@H](NC(=O)c4ccccc4)c4ccccc4)C(C)=C1C3(C)C)[C@]1(OC(C)=O)CO[C@@H]1C[C@@H]2O [PACLITAXEL]	0.1 nM
CC(C)=CCC[C@]1(C)C=Cc2c(O)c3c(c(CC=C(C)C)c2O1)O[C@]12C(=C[C@@H]4C[C@H]1C(C)(C)O[C@@]2(C/C=C(/C)C(=O)O)C4=O)C3=O [GAMBOGIC ACID]	480 nM
